Test results reported in ChEMBL document CHEMBL1125807, “Synthesis and preliminary evaluation of (+)-CBI-indole2: an enhanced functional analog of (+)-CC-1065” (Bioorg Med Chem Lett, 1991).
≈ marks a conversion by molar mass, not a printed value. Where “and” joins values, the source holds several entries; their conditions need not be identical. Equal entries are not always repeated.

How the values were obtained:
[1] = tested on: L1210; assay: Relative IC50 for in vitro cytotoxic activity against L1210 mouse lymphocytic leukemia; format: functional
[2] = Relative stability based on solvolysis studies; format: physicochemical
[3] = tested on: Mus musculus; assay: In vivo antitumor activity of 10 ug/kg.day subcutaneously administered compound against Ip implanted L1210 tumor in mouse; format: functional
[4] = tested on: Mus musculus; assay: In vivo antitumor activity of 39 ug/kg.day subcutaneously administered compound against Ip implanted L1210 tumor in mouse; format: functional
[5] = tested on: Mus musculus; assay: In vivo antitumor activity of 19 ug/kg.day subcutaneously administered compound against Ip implanted L1210 tumor in mouse; format: functional
[6] = tested on: Mus musculus; assay: In vivo antitumor activity of 75 ug/kg.day subcutaneously administered compound against P388 leukemia in mouse; format: functional
[7] = tested on: Nucleic Acid; assay: Relative fist order rate constant for alkylation at the high affinity site of DNA; format: functional
[8] = tested on: Nucleic Acid; assay: Percent alkylation at the high affinity alkylation site [5'-d(AATB)-3'] within w794 DNA at 4 degrees C, 24 h; range is 5-10 %; format: functional
[9] = Half-life was determined; format: ADME; conditions: human
[10] = tested on: L1210; assay: Inhibitory concentration required for 50% in vitro cytotoxic activity was determined against L1210 mouse lymphocytic leukemia at 40 pM; format: functional, cell-based
[11] = tested on: Nucleic Acid; assay: Relative intensity of DNA alkylation at the high affinity alkylation site [5'-d(AATB)-3'] within w794 DNA at 4 degrees C, 24 h; format: functional
[12] = tested on: Mus musculus; assay: In vivo antitumor activity of 29 ug/kg.day subcutaneously administered compound against Ip implanted L1210 tumor in mouse; format: functional
[13] = species on record: Mus musculus; assay: Relative cytotoxic activity against mouse L1210 leukemia; format: functional
[14] = tested on: Mus musculus; assay: In vivo antitumor activity of 5 ug/kg.day subcutaneously administered compound against Ip implanted L1210 tumor in mouse; format: functional
[15] = tested on: L1210; assay: Inhibitory concentration required for 50% in vitro cytotoxic activity was determined against L1210 mouse lymphocytic leukemia at 10 pM; format: functional, cell-based
[16] = tested on: Mus musculus; assay: Survivors at day 18 at 39 ug/kg.day; value is given as 4/6 and no evidence of residual tumor found.; format: functional, organism-based
[17] = tested on: Nucleic Acid; assay: Percent alkylation at the high affinity alkylation site [5'-d(AATB)-3'] within w794 DNA at 4 degrees C, 24 h; format: functional
[18] = tested on: Mus musculus; assay: Survivors at day 18 at 29 ug/kg.day; value is given as 1/6 and no evidence of residual tumor found.; format: functional, organism-based

In the case of Cc1c[nH]c2c1C13CC1CN(C(=O)c1cc4cc(NC(=O)c5cc6ccccc6[nH]5)ccc4[nH]1)C3=CC2=O (single isomer, unassigned; (+)), the Cytotoxic activity [1] is reported as 0.25, the Relative stability [2] is reported as 0.27 and the T/C [3] is reported as 114 and 133. It also gave a T/C [4] of 129, a T/C [5] of 113 and a T/C [6] of 259. It also gave a rel k [7] of 0.07, a DNA alkylation [8] of 10% and a half-life [9] of 36.7 h. For the same compound, the IC50 [10] was 0.02 ng/mL (≈ 0.0399 nM), the Relative intensity [11] was 0.1 and the T/C [12] was 118. For the same compound, the Relative cytotoxic activity [13] was 0.25.
In the case of O=C(Nc1ccc2[nH]c(C(=O)N3C[C@H]4C[C@@]45C3=CC(=O)c3ccccc35)cc2c1)c1cc2ccccc2[nH]1, the Cytotoxic activity [1] is reported as 1, the Relative stability [2] is reported as 1 and the T/C [3] is reported as 156. For the same compound, the T/C [4] was over 200, the T/C [5] was 162 and the T/C [14] was 120. The IC50 [15] was 0.005 ng/mL (≈ 0.01 nM), the Survivors [16] was “No evidence of residual tumor found” and the rel k [7] was 1. The half-life [9] was 133 h, the Relative intensity [11] was 1 and the T/C [12] was over 175. The DNA alkylation [17] was 93%, the Relative cytotoxic activity [13] was 1 and the Survivors [18] was “No evidence of residual tumor found”.
